# Assay results taken from patent US20020092037A1, “Use of membrane supports in plant tissue culture processes” (priority 2000, published 2002).
# Test system: P. taeda embryogenic cell lines
# Assay: Growth of non-transgenic, transgenic and mixed pine cell cultures on GENETICIN selection medium with support treatments, P. taeda
# Assay type: cell-based, Pinus taeda
# Settings: 15 mg/L in DCR selection medium
# Experimental: Stably transformed pine tissue had been generated using a particle bombardment method and selected for the presence of an inserted antibiotic resistance gene, nptII, on DCR2 gelled medium (Table 5), in this example containing 15 mg/L GENETICIN®, hereinafter referred to as DCR selection medium. Additionally, the presence of an inserted gus gene, encoding a β-glucuronidase enzyme in tissue culture cells, had been detected by deep blue staining of cells from each of the transgenic lines upon exposure to a colorigenic glucuronidase enzyme substrate (commercially available from Inalco, Inc.), according to techniques well known to those skilled in the art of plant transformation, and the presence of both transgenes had been verified by use of the polymerase chain reaction (PCR) using techniques well known to those skilled in the art of molecular biology. The transgenic pine lines containing and expressing both transgenes had then been cryopreserved as described in Example 4 above. […]
# Cells, or the supports bearing the cells, were transferred onto fresh selection medium at biweekly intervals, and fresh weight of cells for each plate was recorded at each biweekly transfer, for a total of eight weeks (Table 19). […]
structure (smiles),measurement,value
CN[C@@H]1[C@@H](O)[C@@H](O[C@@H]2[C@@H](O)[C@H](O[C@H]3O[C@H]([C@@H](C)O)[C@@H](O)[C@H](O)[C@H]3N)[C@@H](N)C[C@H]2N)OC[C@]1(C)O [GENETICIN®],selection of non-transformed versus transformed pine tissue,sufficient to kill the non-transformed tissue while allowing growth of the transformed tissue
